According to ChEMBL document CHEMBL4339241, “Meroterpenoids with BACE1 Inhibitory Activity from the Fruiting Body of Boletinus asiaticus” (J Nat Prod, 2019):

biological target: Beta-secretase 1 (Homo sapiens, UniProt P56817); assay: Inhibition of BACE1 (unknown origin) using Rh-EVNNLDAEFK-Quencher substrate incubated for 3 hrs by FRET assay
Sequence (P56817 whole entry): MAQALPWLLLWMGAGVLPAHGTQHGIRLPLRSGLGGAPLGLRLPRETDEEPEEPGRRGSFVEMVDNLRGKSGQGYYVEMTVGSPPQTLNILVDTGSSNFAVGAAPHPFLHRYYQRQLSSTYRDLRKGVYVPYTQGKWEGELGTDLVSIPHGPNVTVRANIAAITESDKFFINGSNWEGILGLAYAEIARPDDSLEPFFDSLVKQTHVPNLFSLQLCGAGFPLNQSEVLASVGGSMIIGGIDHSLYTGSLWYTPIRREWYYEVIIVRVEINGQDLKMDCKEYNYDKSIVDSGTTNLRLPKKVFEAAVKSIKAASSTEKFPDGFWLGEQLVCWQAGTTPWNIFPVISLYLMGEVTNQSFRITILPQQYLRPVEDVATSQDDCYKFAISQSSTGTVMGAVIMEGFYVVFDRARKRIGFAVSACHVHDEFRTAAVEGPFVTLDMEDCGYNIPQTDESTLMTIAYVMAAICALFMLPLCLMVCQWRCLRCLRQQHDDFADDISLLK

In order of rising IC50:
1. C/C(=C\CC/C(C)=C/Cc1cc(C(=O)O)ccc1O)CC/C=C(\C)CC/C=C(\C)C(=O)O  2 µM
2. C/C(=C\CC/C(C)=C/CCC1(C)C=Cc2cc(C(=O)O)ccc2O1)CC/C=C(\C)C(=O)O (racemic)  11.4 µM
3. C=C(CC/C=C(\C)CC/C=C(\C)C(=O)O)C(O)CC/C(C)=C/Cc1cc(C(=O)O)ccc1O (racemic)  14.7 µM
